According to patent US20060009487A1, “Heterocyclic derivatives for treatment of hyperlipidemia and related diseases” (priority 2004, published 2006):

Row | Structure (SMILES) | melting point
1 | N=C(N)NCCNc1c(C(=O)O)cnc2ccccc12 [E5, n=1, 4-(2-Guanidino-ethylamino)-quinoline-3-carboxylic acid] | 267 °C
2 | Cc1nc2ccccc2c(-c2ccccc2)c1CC(NC(=O)CCCC(=O)O)C(=O)NCCCCN (centres unmarked) [D9, 4-[1-(4-Amino-butylcarbamoyl)-2-(2-methyl-4-phenyl-quinolin-3-yl)-ethylcarbamoyl]-butyric acid] | 129 °C
3 | O=C(O)c1cnc2ccccc2c1NCCCNc1ncccn1 [E6, n=2, R=H, 4-[3-(Pyrimidin-2-yl-amino)-propylamino]-quinoline-3-carboxylic acid] | 269 °C

The remaining lines, values ahead:

Row | melting point | Structure (SMILES)
4 | 305 °C | Nc1c(C(=O)O)cnc2ccccc12 [F3, 4-Amino-quinoline-3-carboxylic acid]
5 | 108 °C | CCOC(=O)c1cnc2ccccc2c1NCCCCCNc1ncccn1 [E6, n=4, R═CH2CH3, 4-[5-(Pyrimidin-2-ylamino)-pentylamino]-quinoline-3-carboxylic acid ethyl ester]
